Test results from PubChem BioAssay (NCI).
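Step 1: Grow cells in 96-well plates. Step 2: Expose to compound for 48 hours at 5 concentrations. Step 3: Interpolate endpoints linearly; if unreached, use highest concentration. Abbreviation: GI50, concentration required for 50% inhibition of growth. At the TGI there is no net growth.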

Assays:
Test in all cases: NCI tumour cell line growth inhibition, 48 h
[1] = test system: 786-0 renal
[2] = test system: A498 renal
[3] = test system: A549 NSCLC
[4] = test system: ACHN renal
[5] = test system: BT-549 breast
[6] = test system: CAKI-1 renal
[7] = test system: CCRF-CEM leukemia
[8] = test system: COLO 205 colon
[9] = test system: DU-145 prostate
[10] = test system: EKVX NSCLC
[11] = test system: HCC-2998 colon
[12] = test system: HCT-116 colon
[13] = test system: HCT-15 colon
[14] = test system: HL-60(TB) leukemia
[15] = test system: HOP-62 NSCLC
[16] = test system: HOP-92 NSCLC
[17] = test system: HS 578T breast
[18] = test system: HT29 colon
[19] = test system: IGROV1 ovarian
[20] = test system: K-562 leukemia
[21] = test system: KM12 colon
[22] = test system: LOX IMVI melanoma
[23] = test system: M14 melanoma
[24] = test system: MALME-3M melanoma
[25] = test system: MCF7 breast
[26] = test system: MDA-MB-231 breast
[27] = test system: MDA-MB-435
[28] = test system: MOLT-4 leukemia
[29] = test system: NCI-H226 lung
[30] = test system: NCI-H23 lung
[31] = test system: NCI-H460 lung
[32] = test system: NCI-H522 lung
[33] = test system: NCI/ADR-RES ovarian
[34] = test system: OVCAR-3 ovarian
[35] = test system: OVCAR-4 ovarian
[36] = test system: OVCAR-5 ovarian
[37] = test system: OVCAR-8 ovarian
[38] = test system: PC-3 prostate
[39] = test system: RPMI-8226 leukemia
[40] = test system: RXF 393 renal
[41] = test system: SF-268 CNS
[42] = test system: SF-295 CNS
[43] = test system: SF-539 CNS
[44] = test system: SK-MEL-2 melanoma
[45] = test system: SK-MEL-28 melanoma
[46] = test system: SK-MEL-5 melanoma
[47] = test system: SK-OV-3 ovarian
[48] = test system: SN12C renal
[49] = test system: SNB-19 CNS
[50] = test system: SNB-75 CNS
[51] = test system: SR leukemia
[52] = test system: SW-620 colon
[53] = test system: T-47D breast
[54] = test system: TK-10 renal
[55] = test system: U251 CNS
[56] = test system: UACC-257 melanoma
[57] = test system: UACC-62 melanoma
[58] = test system: UO-31 renal

O=C1NC(=O)C(c2ccc(Cl)cc2)=C1Nc1ccc(Cl)c(C(=O)O)c1
GI50 [1]: > 25000 nM
TGI [1]: > 25000 nM
GI50 [2]: > 25000 nM
TGI [2]: > 25000 nM
GI50 [3]: > 25000 nM
TGI [3]: > 25000 nM
GI50 [4]: > 25000 nM
TGI [4]: > 25000 nM
GI50 [5]: > 25000 nM
TGI [5]: > 25000 nM
GI50 [6]: > 25000 nM
TGI [6]: > 25000 nM
GI50 [7]: > 25000 nM
TGI [7]: > 25000 nM
GI50 [8]: > 25000 nM
TGI [8]: > 25000 nM
GI50 [9]: > 25000 nM
TGI [9]: > 25000 nM
GI50 [10]: > 25000 nM
TGI [10]: > 25000 nM
GI50 [11]: > 25000 nM
TGI [11]: > 25000 nM
GI50 [12]: > 25000 nM
TGI [12]: > 25000 nM
GI50 [13]: > 25000 nM
TGI [13]: > 25000 nM
GI50 [14]: > 25000 nM
TGI [14]: > 25000 nM
GI50 [15]: > 25000 nM
TGI [15]: > 25000 nM
GI50 [16]: > 25000 nM
TGI [16]: > 25000 nM
GI50 [17]: > 25000 nM
TGI [17]: > 25000 nM
GI50 [18]: > 25000 nM
TGI [18]: > 25000 nM
GI50 [19]: > 25000 nM
TGI [19]: > 25000 nM
GI50 [20]: > 25000 nM
TGI [20]: > 25000 nM
GI50 [21]: > 25000 nM
TGI [21]: > 25000 nM
GI50 [22]: > 25000 nM
TGI [22]: > 25000 nM
GI50 [23]: > 25000 nM
TGI [23]: > 25000 nM
GI50 [24]: > 25000 nM
TGI [24]: > 25000 nM
GI50 [25]: > 25000 nM
TGI [25]: > 25000 nM
GI50 [26]: > 25000 nM
TGI [26]: > 25000 nM
GI50 [27]: > 25000 nM
TGI [27]: > 25000 nM
GI50 [28]: > 25000 nM
TGI [28]: > 25000 nM
GI50 [29]: > 25000 nM
TGI [29]: > 25000 nM
GI50 [30]: > 25000 nM
TGI [30]: > 25000 nM
GI50 [31]: > 25000 nM
TGI [31]: > 25000 nM
GI50 [32]: > 25000 nM
TGI [32]: > 25000 nM
GI50 [33]: > 25000 nM
TGI [33]: > 25000 nM
GI50 [34]: > 25000 nM
TGI [34]: > 25000 nM
GI50 [35]: > 25000 nM
TGI [35]: > 25000 nM
GI50 [36]: > 25000 nM
TGI [36]: > 25000 nM
GI50 [37]: > 25000 nM
TGI [37]: > 25000 nM
GI50 [38]: > 25000 nM
TGI [38]: > 25000 nM
GI50 [39]: > 25000 nM
TGI [39]: > 25000 nM
GI50 [40]: > 25000 nM
TGI [40]: > 25000 nM
GI50 [41]: > 25000 nM
TGI [41]: > 25000 nM
GI50 [42]: > 25000 nM
TGI [42]: > 25000 nM
GI50 [43]: > 25000 nM
TGI [43]: > 25000 nM
GI50 [44]: > 25000 nM
TGI [44]: > 25000 nM
GI50 [45]: > 25000 nM
TGI [45]: > 25000 nM
GI50 [46]: > 25000 nM
TGI [46]: > 25000 nM
GI50 [47]: > 25000 nM
TGI [47]: > 25000 nM
GI50 [48]: > 25000 nM
TGI [48]: > 25000 nM
GI50 [49]: > 25000 nM
TGI [49]: > 25000 nM
GI50 [50]: > 25000 nM
TGI [50]: > 25000 nM
GI50 [51]: > 25000 nM
TGI [51]: > 25000 nM
GI50 [52]: > 25000 nM
TGI [52]: > 25000 nM
GI50 [53]: > 25000 nM
TGI [53]: > 25000 nM
GI50 [54]: > 25000 nM
TGI [54]: > 25000 nM
GI50 [55]: > 25000 nM
TGI [55]: > 25000 nM
GI50 [56]: > 25000 nM
TGI [56]: > 25000 nM
GI50 [57]: > 25000 nM
TGI [57]: > 25000 nM
GI50 [58]: > 25000 nM
TGI [58]: > 25000 nM

CSc1n(Cc2ccc3ccccc3c2)c(C)c[n+]1Cc1ccc2ccccc2c1
GI50 [1]: 1530 nM
TGI [1]: 2970 nM
GI50 [2]: 1130 nM
TGI [2]: 2930 nM
GI50 [3]: 1280 nM
TGI [3]: 2730 nM
GI50 [4]: 1900 nM
TGI [4]: 3770 nM
GI50 [5]: 569 nM
TGI [5]: 1810 nM
GI50 [6]: 1490 nM
TGI [6]: 2970 nM
GI50 [7]: 571 nM
TGI [7]: 2310 nM
GI50 [8]: 352 nM
TGI [8]: 1340 nM
GI50 [9]: 1070 nM
TGI [9]: 2390 nM
GI50 [10]: 1400 nM
TGI [10]: 3830 nM
GI50 [11]: 535 nM
TGI [11]: 1820 nM
GI50 [12]: 615 nM
TGI [12]: 1860 nM
GI50 [13]: 2120 nM
TGI [13]: 4750 nM
GI50 [14]: 319 nM
TGI [14]: 1120 nM
GI50 [15]: 1390 nM
TGI [15]: 3010 nM
GI50 [16]: 255 nM
TGI [16]: 1280 nM
GI50 [17]: 1020 nM
TGI [17]: 2700 nM
GI50 [18]: 431 nM
TGI [18]: 1600 nM
GI50 [19]: 490 nM
TGI [19]: 1800 nM
GI50 [20]: 414 nM
TGI [20]: 2360 nM
GI50 [21]: 593 nM
TGI [21]: 1960 nM
GI50 [22]: 591 nM
TGI [22]: 1900 nM
GI50 [23]: 608 nM
TGI [23]: 2080 nM
GI50 [24]: 472 nM
TGI [24]: 1730 nM
GI50 [25]: 505 nM
TGI [25]: 1880 nM
GI50 [26]: 484 nM
TGI [26]: 1740 nM
GI50 [27]: 436 nM
TGI [27]: 1570 nM
GI50 [28]: 1110 nM
TGI [28]: 3010 nM
GI50 [29]: 1310 nM
TGI [29]: 3180 nM
GI50 [30]: 385 nM
TGI [30]: 1640 nM
GI50 [31]: 802 nM
TGI [31]: 2180 nM
GI50 [32]: 311 nM
TGI [32]: 1300 nM
GI50 [33]: 12800 nM
TGI [33]: 31300 nM
GI50 [34]: 445 nM
TGI [34]: 1630 nM
GI50 [35]: 289 nM
TGI [35]: 1040 nM
GI50 [36]: 1200 nM
TGI [36]: 2530 nM
GI50 [37]: 417 nM
TGI [37]: 1600 nM
GI50 [38]: 563 nM
TGI [38]: 2170 nM
GI50 [39]: 287 nM
TGI [39]: 1360 nM
GI50 [40]: 938 nM
TGI [40]: 2470 nM
GI50 [41]: 690 nM
TGI [41]: 2130 nM
GI50 [42]: 1340 nM
TGI [42]: 2690 nM
GI50 [43]: 797 nM
TGI [43]: 2120 nM
GI50 [44]: 486 nM
TGI [44]: 1730 nM
GI50 [45]: 854 nM
TGI [45]: 2190 nM
GI50 [46]: 389 nM
TGI [46]: 1320 nM
GI50 [47]: 1180 nM
TGI [47]: 2610 nM
GI50 [48]: 523 nM
TGI [48]: 1870 nM
GI50 [49]: 510 nM
TGI [49]: 1720 nM
GI50 [50]: 342 nM
TGI [50]: 1490 nM
GI50 [51]: 363 nM
TGI [51]: 2520 nM
GI50 [52]: 852 nM
TGI [52]: 2260 nM
GI50 [53]: 408 nM
TGI [53]: 2100 nM
GI50 [54]: 1410 nM
TGI [54]: 2880 nM
GI50 [55]: 422 nM
TGI [55]: 1650 nM
GI50 [56]: 325 nM
TGI [56]: 1120 nM
GI50 [57]: 519 nM
TGI [57]: 1820 nM
GI50 [58]: 1600 nM
TGI [58]: 3840 nM
